# According to the NIST ThermoML archive (doi:10.1016/j.jct.2015.11.006):
# Numbers after ± are expanded uncertainties.
# Experiment: refractive index (Na D-line) (dimensionless)
# Details: 298.15 K; 101.33 kPa; Liquid; Standard Abbe refractometry
row,Compound,refractive index
1,O [water],1.3326 ± 0.0005
2,CCO [ethanol],1.3591 ± 0.0005
3,CC(C)O [propan-2-ol],1.3756 ± 0.0005
